Literature values as cited in article PMC12521730, “Quantitative dual-isotope preclinical SPECT/CT imaging and biodistribution of the mercury-197m/g theranostic pair with [^197m/gHg]HgCl2 and a [^197m/gHg]Hg-tetrathiol complex as a platform for radiopharmaceutical development” (EJNMMI Radiopharmacy and Chemistry, 2025).

Tests used:
[1] = set-up: method as in Randhawa et al. [2023]; conditions: 72 h; ref Randhawa et al. [2023]; cited from earlier work
[2] = 24 h; ref Randhawa et al. [2023]; cited from earlier work

SMILES: O=C(CN1CCSCCSCCSCCSCC1)NCc1ccccc1.[Hg+2] [NS4-BA complex]
- intact complex when challenged against GSH [1]: 92 ± 1%
- intact complex in human serum [2]: 74 ± 7%
